Laboratory results as given in patent publication US11013698B2, “Combinations of LSD1 inhibitors for the treatment of hematological malignancies” (Oryzon Genomics S.A., priority 2016, dated 2021).
Like-named read-outs stand apart in the source and are kept apart here.

Assays:
Assay in all cases: Viability assay (96 hours), Alamar Blue
Assay type in all cases: cell-based
MV(4;11) = conditions: for EC50: Homo sapiens, read-out: EC50 (viability); for Reduction of viability (compared to vehicle controls): serial 1:3 dilution
Procedure: (§1) AML cell lines were maintained in RPMI 10% FBS medium at 37° C. in a humidified incubator with controlled 5% CO2 atmosphere. Cell freezing and thawing was performed following recommendation from ATCC. Genetic profiling of the cell lines used is available in table 2. Cells were seeded at the optimal density (to guarantee linear growth during the treatment), as previously determined (4000 cells/well, except 16000 cells/well in the case of KASUMI-1 cells), in 96-well plates with 50 μL of medium. Three wells were reserved for each experimental condition; medium-only and vehicle-treated controls were also added for background correction and normalization respectively. […] Alamar Blue® is a cell viability indicator that uses the natural reducing power of living cells to convert resazurin to the fluorescent molecule, resorufin^43.

HL-60 = conditions: for Reduction of viability (compared to vehicle controls): serial 1:3 dilution; for EC50: Homo sapiens, read-out: EC50 (viability)
Procedure: as §1

THP-1 = conditions: for EC50: Homo sapiens, read-out: EC50 (viability); for Reduction of viability (compared to vehicle controls): serial 1:3 dilution
Procedure: as §1

MOLM-13 = conditions: for EC50: Homo sapiens, read-out: EC50 (viability); for Reduction of viability (compared to vehicle controls): serial 1:3 dilution
Procedure: as §1

KASUMI-1 = conditions: for EC50: Homo sapiens, read-out: EC50 (viability); for Reduction of viability (compared to vehicle controls): serial 1:3 dilution
Procedure: as §1

OCI-AML3 = conditions: for EC50: Homo sapiens, read-out: EC50 (viability); for Reduction of viability (compared to vehicle controls): serial 1:3 dilution
Procedure: as §1

OCI-AML2 = conditions: for EC50: Homo sapiens, read-out: EC50 (viability); for Reduction of viability (compared to vehicle controls): serial 1:3 dilution
Procedure: as §1

[1] = MV4-11, MV(4;11), 96 hours, single agent
[2] = MOLM-13, 96 hours, single agent
[3] = KASUMI-1, 96 hours, single agent
[4] = OCI-AML-3, OCI-AML3, 96 hours, single agent
[5] = OCI-AML2, 96 hours, single agent

| SMILES | EC50 (MV(4;11); [1]) [nM] | Reduction of viability (compared to vehicle controls) (MV(4;11); MV(4;11), 96 hours) | Reduction of viability (compared to vehicle controls) (HL-60; HL-60, 96 hours) | EC50 (HL-60; HL-60, 96 hours, single agent) [nM] | EC50 (THP-1; THP-1, 96 hours, single agent) [nM] | Reduction of viability (compared to vehicle controls) (THP-1; THP-1, 96 hours) | EC50 (MOLM-13; [2]) [nM] | Reduction of viability (compared to vehicle controls) (MOLM-13; MOLM-13, 96 hours) | EC50 (KASUMI-1; [3]) [nM] | Reduction of viability (compared to vehicle controls) (KASUMI-1; KASUMI-1, 96 hours) | EC50 (OCI-AML3; [4]) [nM] | Reduction of viability (compared to vehicle controls) (OCI-AML3; OCI-AML3, 96 hours) | EC50 (OCI-AML2; [5]) [nM] | Reduction of viability (compared to vehicle controls) (OCI-AML2; OCI-AML2, 96 hours) | other results |
| --- | --- | --- | --- | --- | --- | --- | --- | --- | --- | --- | --- | --- | --- | --- | --- |
| Nc1ccn([C@@H]2O[C@H](CO)[C@@H](O)[C@@H]2O)c(=O)n1 [ARA-C, arabinofuranosyl cytidine] | 198 | greater than 20% | greater than 20% | 43.5 | 252 | greater than 20% | 78.5 | greater than 20% | 28.7 | greater than 20% | 145 | greater than 20% | 26.5 | greater than 20% | – |
| Nc1ncn([C@@H]2O[C@H](CO)[C@@H](O)[C@H]2O)c(=O)n1 [Azacitidine] | 1110 | greater than 20% | greater than 20% | 1810 | 2880 | greater than 20% | 323 | greater than 20% | 2280 | greater than 20% | 889 | greater than 20% | 1850 | greater than 20% | – |
| Nc1ccccc1NC(=O)c1ccc(CNC(=O)OCc2cccnc2)cc1 [Entinostat] | 98.5 | greater than 20% | greater than 20% | 42 | 230 | greater than 20% | 52 | greater than 20% | 168 | greater than 20% | 55.2 | greater than 20% | 106 | greater than 20% | – |
| CC(C)(C)c1cc(NC(=O)Nc2ccc(-c3cn4c(n3)sc3cc(OCCN5CCOCC5)ccc34)cc2)no1 [Quizartinib] | < 1 | greater than 20% | – | – | – | – | < 1 | greater than 20% | – | – | – | – | 830 | greater than 20% | – |
| Nc1ncn([C@H]2C[C@H](O)[C@@H](CO)O2)c(=O)n1 [Decitabine, 5-aza-2′-deoxycytidine] | – | greater than 20% | greater than 20% | – | – | greater than 20% | – | greater than 20% | – | greater than 20% | – | greater than 20% | – | greater than 20% | EC50 (MV(4;11); MV4-11, 96 h): 79.5 nM; EC50 (HL-60; HL-60, 96 h): 42.1 nM; EC50 (THP-1; THP-1, 96 h): 95 nM; EC50 (MOLM-13; MOLM-13, 96 h): 12.6 nM; EC50 (KASUMI-1; Kasumi 1, 96 h): 24 nM; EC50 (OCI-AML3; OCI-AML-3, 96 h): 100 nM; EC50 (OCI-AML2; OCI-AML2, 96 h): 36 nM |
| O=C(CCCCCCC(=O)Nc1ccccc1)NO [SAHA, suberanilohydroxamic acid] | – | greater than 20% | greater than 20% | – | – | greater than 20% | – | greater than 20% | – | greater than 20% | – | greater than 20% | – | greater than 20% | – |
| CC(C)N(C[C@H]1O[C@@H](n2cnc3c(N)ncnc32)[C@H](O)[C@@H]1O)[C@H]1C[C@@H](CCc2nc3cc(C(C)(C)C)ccc3[nH]2)C1 [EPZ5676, Pinometostat] | 16 | greater than 20% | – | – | – | – | 44.7 | greater than 20% | – | – | – | – | – | – | – |
| CN(C)CC[C@H](CSc1ccccc1)Nc1ccc(S(=O)(=O)NC(=O)c2ccc(N3CCN(Cc4ccccc4-c4ccc(Cl)cc4)CC3)cc2)cc1[N+](=O)[O-] [ABT737, 4-[4-[[2-(4-chlorophenyl)phenyl]methyl]piperazin-1-yl]-N-[4-[[(2R)-4-(dimethylamino)-1-phenylsulfanylbutan-2-yl]amino]-3-nitrophenyl]sulfonylbenzamide] | 6.3 | greater than 20% | greater than 20% | 113 | – | – | 25 | greater than 20% | 124 | greater than 20% | – | – | 14 | greater than 20% | – |
| CC1=C(/C=C/C(C)=C/C=C/C(C)=C/C(=O)O)C(C)(C)CCC1 [ATRA, all-trans retinoic acid] | 2.8 | greater than 20% | greater than 20% | 2.7 | 1.7 | greater than 20% | 4.8 | greater than 20% | – | – | 0.8 | greater than 20% | 5.9 | greater than 20% | – |
| COc1ccc(C2=N[C@@H](c3ccc(Cl)cc3)[C@@H](c3ccc(Cl)cc3)N2C(=O)N2CCNC(=O)C2)c(OC(C)C)c1 [Nutlin3A, 4-[[(4S,5R)-4,5-bis(4-chlorophenyl)-4,5-dihydro-2-[4-methoxy-2-(1-methylethoxy)phenyl]-1H-imidazol-1-yl]carbonyl]-2-piperazinone] | – | – | – | – | 324 | greater than 20% | 128 | greater than 20% | – | – | 659 | greater than 20% | 446 | greater than 20% | – |
| CC(C)N(CCCNC(=O)Nc1ccc(C(C)(C)C)cc1)C[C@H]1O[C@@H](n2ccc3c(N)ncnc32)[C@H](O)[C@@H]1O [EPZ004777, 7-[5-Deoxy-5-[[3-[[[[4-(1,1-dimethylethyl)phenyl]amino]carbonyl]amino]propyl](1-methylethyl)amino]-β-D-ribofuranosyl]-7H-pyrrolo[2,3-d]pyrimidin-4-amine] | 118 | greater than 20% | – | – | – | – | 108 | greater than 20% | – | – | – | – | – | – | – |
